From patent US20080027117A1, “Antifungal Azole Derivatives Having a Fluorovinyl Moiety and Process for the Preparation Thereof” (KOREA RESERACH INSTIITUTE OF CHEMICAL TECHNOLOGY, priority 2003, published 2008)
Converted amounts (≈) assume the structure as drawn. Where two headings read alike, the source gives them in different places.

Columns and labels:
CYP 1A2 = biological target: T1, CYP 1A2 (Homo sapiens, UniProt P05177); assay: Hepatic toxicity: Phenacetin O-deethylase in human hepatic microsomes
T1 sequence (P05177 1-516): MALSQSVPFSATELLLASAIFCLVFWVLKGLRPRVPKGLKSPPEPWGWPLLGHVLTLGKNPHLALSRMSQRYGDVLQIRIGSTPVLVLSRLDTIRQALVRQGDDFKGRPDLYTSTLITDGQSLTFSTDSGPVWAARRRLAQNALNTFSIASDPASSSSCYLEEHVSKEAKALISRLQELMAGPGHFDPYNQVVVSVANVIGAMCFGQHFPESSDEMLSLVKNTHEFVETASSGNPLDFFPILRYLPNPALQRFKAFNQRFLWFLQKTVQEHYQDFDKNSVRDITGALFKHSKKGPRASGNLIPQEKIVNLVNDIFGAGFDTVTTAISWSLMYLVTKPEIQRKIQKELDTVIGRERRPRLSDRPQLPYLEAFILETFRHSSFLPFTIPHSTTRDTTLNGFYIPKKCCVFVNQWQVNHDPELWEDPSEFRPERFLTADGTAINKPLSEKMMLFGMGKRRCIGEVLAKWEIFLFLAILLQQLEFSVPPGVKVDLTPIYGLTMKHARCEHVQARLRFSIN
Description: (§1) After incubating at 37° C. for 20 min, 200 μl of each resulting solution was mixed with 100 μl of acetonitrile, and analyzed with LC-MS (LC column: Luna2 C8, 2×100 mm, flow velocity: 0.2 ml/min, MS system: Quattro LC (micromass)) using a 5% MeOH aqueous solution containing 0.1% formic acid as an eluent.

CYP 2A6 = biological target: T2, CYP 2A6 (Homo sapiens, UniProt P11509); assay: Hepatic toxicity: Coumarin 7-hydroxylase in human hepatic microsomes
T2 sequence (P11509 1-494): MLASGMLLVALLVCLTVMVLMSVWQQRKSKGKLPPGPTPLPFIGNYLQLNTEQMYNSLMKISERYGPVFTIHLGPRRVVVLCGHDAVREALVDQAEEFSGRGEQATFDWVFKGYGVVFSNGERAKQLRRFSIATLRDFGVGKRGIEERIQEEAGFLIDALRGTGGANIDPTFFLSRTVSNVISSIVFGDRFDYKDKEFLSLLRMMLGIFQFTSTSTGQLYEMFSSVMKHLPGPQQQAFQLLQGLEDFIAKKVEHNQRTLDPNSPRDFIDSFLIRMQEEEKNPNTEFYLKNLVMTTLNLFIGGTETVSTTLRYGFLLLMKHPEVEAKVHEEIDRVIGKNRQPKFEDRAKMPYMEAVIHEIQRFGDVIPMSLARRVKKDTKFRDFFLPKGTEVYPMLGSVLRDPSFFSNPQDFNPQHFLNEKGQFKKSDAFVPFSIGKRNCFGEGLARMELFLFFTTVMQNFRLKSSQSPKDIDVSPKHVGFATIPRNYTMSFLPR
Description: as §1

CYP 2C8 = biological target: T3, CYP 2C8 (Homo sapiens, UniProt P10632); assay: Hepatic toxicity: Paclitaxel 6 α-hydroxylase in human hepatic microsomes
T3 sequence (P10632 1-490): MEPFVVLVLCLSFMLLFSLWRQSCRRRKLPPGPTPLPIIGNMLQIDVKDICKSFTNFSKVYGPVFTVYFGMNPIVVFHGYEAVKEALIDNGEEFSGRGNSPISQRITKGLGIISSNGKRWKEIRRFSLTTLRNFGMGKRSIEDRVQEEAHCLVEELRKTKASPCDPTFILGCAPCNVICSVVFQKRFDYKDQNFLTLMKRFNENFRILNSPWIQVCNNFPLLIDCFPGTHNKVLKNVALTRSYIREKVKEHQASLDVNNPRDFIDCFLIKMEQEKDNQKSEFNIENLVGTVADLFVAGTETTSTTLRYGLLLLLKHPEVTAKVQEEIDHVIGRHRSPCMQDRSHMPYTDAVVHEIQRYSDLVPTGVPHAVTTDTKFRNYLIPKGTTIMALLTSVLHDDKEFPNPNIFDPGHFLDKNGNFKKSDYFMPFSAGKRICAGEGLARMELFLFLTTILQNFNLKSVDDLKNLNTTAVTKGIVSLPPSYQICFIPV
Description: as §1

CYP 2C9 = CYP 2C9 (Homo sapiens, UniProt P11712); assay: Hepatic toxicity: Diclofenac 4′-hydroxylase in human hepatic microsomes
Chain of CYP 2C9 (P11712 whole entry): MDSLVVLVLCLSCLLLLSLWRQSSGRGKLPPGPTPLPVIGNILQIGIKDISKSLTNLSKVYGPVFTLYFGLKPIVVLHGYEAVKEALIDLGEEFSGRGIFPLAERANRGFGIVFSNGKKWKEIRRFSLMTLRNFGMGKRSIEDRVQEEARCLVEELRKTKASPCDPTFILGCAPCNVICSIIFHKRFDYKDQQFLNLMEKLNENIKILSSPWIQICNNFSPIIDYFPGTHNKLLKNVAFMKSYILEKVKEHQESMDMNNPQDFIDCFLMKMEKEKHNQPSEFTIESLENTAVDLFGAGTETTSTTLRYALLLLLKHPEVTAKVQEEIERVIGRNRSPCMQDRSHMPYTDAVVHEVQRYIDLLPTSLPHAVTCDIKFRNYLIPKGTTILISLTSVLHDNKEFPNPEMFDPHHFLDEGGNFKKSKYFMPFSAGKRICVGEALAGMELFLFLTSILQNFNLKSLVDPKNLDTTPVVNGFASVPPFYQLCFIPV
Description: as §1

CYP 2C19 = CYP 2C19 (Homo sapiens, UniProt P33261); assay: Hepatic toxicity: Mephenytoin 4-hydroxylase in human hepatic microsomes
Chain of CYP 2C19 (P33261 whole entry): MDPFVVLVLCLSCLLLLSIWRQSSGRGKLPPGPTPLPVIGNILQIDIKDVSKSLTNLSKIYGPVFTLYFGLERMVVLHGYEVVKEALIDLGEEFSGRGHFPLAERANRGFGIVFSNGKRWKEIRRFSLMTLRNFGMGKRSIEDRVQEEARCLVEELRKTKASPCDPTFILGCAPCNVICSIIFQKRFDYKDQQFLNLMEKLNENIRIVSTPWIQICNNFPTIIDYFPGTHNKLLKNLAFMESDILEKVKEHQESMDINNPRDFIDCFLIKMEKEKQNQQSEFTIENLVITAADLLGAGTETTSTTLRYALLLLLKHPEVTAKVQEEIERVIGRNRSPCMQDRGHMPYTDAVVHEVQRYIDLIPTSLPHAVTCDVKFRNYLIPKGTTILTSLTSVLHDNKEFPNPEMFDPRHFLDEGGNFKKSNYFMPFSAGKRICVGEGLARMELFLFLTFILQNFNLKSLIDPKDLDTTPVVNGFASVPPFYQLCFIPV
Description: as §1

CYP 2D6 = CYP 2D6 (Homo sapiens, UniProt P10635); assay: Hepatic toxicity: Bufuralol 1′-hydroxylase in human hepatic microsomes
Chain of CYP 2D6 (P10635 whole entry): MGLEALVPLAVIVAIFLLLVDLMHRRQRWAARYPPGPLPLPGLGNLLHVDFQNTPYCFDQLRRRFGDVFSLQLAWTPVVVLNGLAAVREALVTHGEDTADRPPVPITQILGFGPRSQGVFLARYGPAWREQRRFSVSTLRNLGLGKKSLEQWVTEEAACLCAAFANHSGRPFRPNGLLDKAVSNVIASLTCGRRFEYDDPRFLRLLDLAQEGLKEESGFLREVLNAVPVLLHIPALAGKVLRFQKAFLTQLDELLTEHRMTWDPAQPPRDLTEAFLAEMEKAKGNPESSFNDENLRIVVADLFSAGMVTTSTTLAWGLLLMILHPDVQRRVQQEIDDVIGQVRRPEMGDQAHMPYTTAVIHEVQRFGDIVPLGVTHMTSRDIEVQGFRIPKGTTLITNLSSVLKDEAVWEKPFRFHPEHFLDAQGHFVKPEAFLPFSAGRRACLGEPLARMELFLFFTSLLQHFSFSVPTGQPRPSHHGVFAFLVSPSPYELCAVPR
Description: as §1

CYP 3A4 = CYP 3A4 (Homo sapiens, UniProt P08684); assay: Hepatic toxicity: Midazolam 1′-hydroxylase in human hepatic microsomes; settings: read-out: IC50 Midazolam 1′-hydroxylase CYP 3A4; human hepatic microsomes 0.5 mg/ml, 37° C., 20 min, LC-MS
Chain of CYP 3A4 (P08684 whole entry): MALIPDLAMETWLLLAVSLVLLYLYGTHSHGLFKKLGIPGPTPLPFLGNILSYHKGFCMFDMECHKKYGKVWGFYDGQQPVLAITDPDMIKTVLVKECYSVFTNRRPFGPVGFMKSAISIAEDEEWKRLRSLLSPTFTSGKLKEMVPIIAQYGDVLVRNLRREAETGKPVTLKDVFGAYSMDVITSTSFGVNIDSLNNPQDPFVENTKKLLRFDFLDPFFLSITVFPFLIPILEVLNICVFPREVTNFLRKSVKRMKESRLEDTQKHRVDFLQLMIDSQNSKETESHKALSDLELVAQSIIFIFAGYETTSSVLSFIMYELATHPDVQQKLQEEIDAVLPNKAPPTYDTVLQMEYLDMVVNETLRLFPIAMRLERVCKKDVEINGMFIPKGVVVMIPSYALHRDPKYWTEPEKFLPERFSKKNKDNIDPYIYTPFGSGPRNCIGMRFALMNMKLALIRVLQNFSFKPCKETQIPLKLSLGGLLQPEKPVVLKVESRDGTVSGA
Description: as §1

C. neoformans ATCC 36556 = assay: In vitro antifungal activity, microbroth dilution (MIC80); assay type: cell-based; settings: lowest concentration reducing growth by 80% relative to untreated control; RPMI-1640, 35° C.
Description: (§2) Sabourad Dextrose Agar (Difco), YM Agar or Potato Dextrose Agar was used as a culture medium according to ATCC information, and RPMI-1640 broth (Sigma. Co. w/L-glutamine, wo/NaHCO3)(0.165 M MOPS, pH 7.0), as a dilution medium. […] In the case of yeasts, the turbidity (light absorbance) of the suspension was adjusted to 0.108 at 530 nm, and then the suspension was diluted 1000-fold with sterile RPMI-1640 liquid medium to 1.0103˜5.0103 CFU/ml. The turbidity of fungi was adjusted to 80˜82% and the suspension was diluted 50-fold to 0.4102˜0.5104 CFU/ml. […] 0.1 ml portions of the test solutions were added to the wells of a sterile 96 well plate. Then, 0.1 ml portions of each test strain solutions were added successively to the wells and the plate was incubated at 35° C. for […]. Minimal inhibitory concentration (MIC80) of each compound was determined as the lowest concentration of the test compounds required to reduce growth by 80% relative to a control strain not treated.

[1] = tested on: Candida albicans ATCC 10231; assay: as above; assay type: cell-based; settings: lowest concentration reducing growth by 80% relative to untreated control; RPMI-1640, 35° C.
Description: as §2

Candida krusei ATCC 6258 = assay: as above; assay type: cell-based; settings: lowest concentration reducing growth by 80% relative to untreated control; RPMI-1640, 35° C.
Description: as §2

ICR mice = assay: Toxicity of oral administration; assay type: in vivo; settings: oral administration in DMSO, observed over 2 weeks
Description: Specific pathogen-free ICR mice, 2 females and 2 males were used for the each testing. The compound of Example 40 of the present invention was dissolved in DMSO and the solution was orally administered in doses of 62, 125, 250, 500, 1,000 and 2,000 mg of the compound/kg of the body weight (10 ml of the sample volume/kg of the body weight).

A. fumigatus ATCC 16424 = assay: In vitro antifungal activity, microbroth dilution (MIC80); assay type: cell-based; settings: lowest concentration reducing growth by 80% relative to untreated control; RPMI-1640, 35° C.
Description: as §2

Candida albicans MYA-573 = assay: as above; assay type: cell-based; settings: lowest concentration reducing growth by 80% relative to untreated control; RPMI-1640, 35° C.
Description: as §2

| SMILES | IC50 (CYP 3A4) | IC50 (CYP 1A2; microsomes) | IC50 (CYP 2A6; microsomes) | IC50 (CYP 2C8; microsomes) | IC50 (CYP 2C9; microsomes) | IC50 (CYP 2C19; microsomes) | IC50 (CYP 2D6; microsomes) | MIC Range (MIC80) C. neoformans ATCC 36556 (C. neoformans ATCC 36556) | MIC Range (MIC80) Candida albicans ATCC 10231 [1] | MIC Range (MIC80) Candida krusei ATCC 6258 (Candida krusei ATCC 6258) | MIC Range (MIC80) A. fumigatus ATCC 16424 (A. fumigatus ATCC 16424) | MIC Range (MIC80) Candida albicans MYA-573 (Candida albicans MYA-573) | also measured |
| --- | --- | --- | --- | --- | --- | --- | --- | --- | --- | --- | --- | --- | --- |
| COc1ccc(C(=C(F)Oc2ccc(-c3ncn(C(C)C(O)(Cn4cncn4)c4ccc(F)cc4F)n3)cc2)C(F)(F)F)cc1 (stereo not drawn) [Example 32] | > 100 µM | – | – | – | – | – | – | – | – | – | – | – | IC50 (CYP 1A2; read-out: IC50 Phenacetin O-deethylase CYP 1A2, human hepatic microsomes 0.5 mg/ml, 37° C., 20 min, LC-MS): > 100 µM; IC50 (CYP 2A6; read-out: IC50 Coumarin 7-hydroxylase CYP 2A6, human hepatic microsomes 0.5 mg/ml, 37° C., 20 min, LC-MS): > 100 µM; IC50 (CYP 2C8; read-out: IC50 Paclitaxel 6 α-hydroxylase CYP 2C8, human hepatic microsomes 0.5 mg/ml, 37° C., 20 min, LC-MS): 19.9 µM; IC50 (CYP 2C9; read-out: IC50 Diclofenac 4′-hydroxylase CYP 2C9, human hepatic microsomes 0.5 mg/ml, 37° C., 20 min, LC-MS): > 100 µM; IC50 (CYP 2C19; read-out: IC50 Mephenytoin 4-hydroxylase CYP 2C19, human hepatic microsomes 0.5 mg/ml, 37° C., 20 min, LC-MS): > 100 µM; IC50 (CYP 2D6; read-out: IC50 Bufuralol 1′-hydroxylase CYP 2D6, human hepatic microsomes 0.5 mg/ml, 37° C., 20 min, LC-MS): > 100 µM |
| CC(N1CCN(c2ccc(OC(F)=Cc3cccc(Cl)c3)cc2)C1=O)C(O)(Cn1cncn1)c1ccc(F)cc1F (mixture of isomers) [Example 111] | > 100 µM | > 100 µM | > 100 µM | > 100 µM | > 100 µM | > 100 µM | > 100 µM | – | – | – | – | – | – |
| OC(Cn1cncn1)(Cn1cncn1)c1ccc(F)cc1F [Fluconazole, reference compound] | – | – | – | – | – | – | – | 16~32 μg/ml | 2~4 μg/ml | 32~64 μg/ml | – | – | IC50 (CYP 1A2): > 100 µM; IC50 (CYP 2A6): > 100 µM; IC50 (CYP 2C8): > 100 µM; IC50 (CYP 2D6): 44.2 µM |
| CC(n1cnc(-c2ccc(OC(F)=Cc3ccc(Cl)cc3)cc2)n1)C(O)(Cn1cncn1)c1ccc(F)cc1F (stereo not drawn) [Example 40] | > 100 µM | > 100 µM | > 100 µM | 30.1 µM | > 100 µM | > 100 µM | > 100 µM | – | – | – | – | – | LD50 (ICR mice): approximately 1,750 mg/kg; fetal dose (ICR mice): 1,000˜2,000 mg/kg |
| CC(OC(F)=C(c1ccccc1)C(F)(F)F)C(O)(Cn1cncn1)c1ccc(F)cc1F (stereo not drawn) [Example 5] | – | – | – | – | – | – | – | 4 µg/mL (≈ 8.75 µM) | 2~4 μg/ml | >16 µg/mL | >16 µg/mL | >256 µg/mL | – |
| COc1cccc(C(=C(F)OC(C)C(O)(Cn2cncn2)c2ccc(F)cc2F)C(F)(F)F)c1 (stereo not drawn) [Example 13] | – | – | – | – | – | – | – | 16 µg/mL (≈ 32.8 µM) | >64 µg/mL | >64 µg/mL | >64 µg/mL | – | – |
| CC(OC(F)=Cc1ccc(Oc2ccccc2)cc1)C(O)(Cn1cncn1)c1ccc(F)cc1F (stereo not drawn) [Example 15] | – | – | – | – | – | – | – | 0.5 µg/mL (≈ 1.04 µM) | 1 µg/mL (≈ 2.08 µM) | 4 µg/mL (≈ 8.31 µM) | >256 µg/mL | 1 µg/mL (≈ 2.08 µM) | – |
| C[C@@H]1[C@H](O)[C@@H](C)/C=C/C=C/C=C/C=C/C=C/C=C/C=C/[C@H](O[C@@H]2O[C@H](C)[C@@H](O)[C@H](N)[C@@H]2O)C[C@@H]2O[C@](O)(C[C@@H](O)C[C@@H](O)[C@H](O)CC[C@@H](O)C[C@@H](O)CC(=O)O[C@H]1C)C[C@H](O)[C@H]2C(=O)O [Amphotericine B, reference compound] | – | – | – | – | – | – | – | 0.25~1 μg/ml | 0.5~1 μg/ml | 1 µg/mL (≈ 1.08 µM) | 0.5~1 μg/ml | 1~2 μg/ml | – |
| CC(=O)N1CCN(c2ccc(OCC3COC(Cn4ccnc4)(c4ccc(Cl)cc4Cl)O3)cc2)CC1 (stereo not drawn) [ketoconazole, reference compound] | – | – | – | – | – | – | – | – | – | – | – | – | IC50 (CYP 2A6): > 100 µM |
| CC(n1ccn(-c2ccc(OC(F)=C(c3ccc(Cl)cc3)C(F)(F)F)cc2)c1=O)C(O)(Cn1cncn1)c1ccc(F)cc1F (mixture of isomers) [Example 121] | > 100 µM | > 100 µM | > 100 µM | 41.2 µM | > 100 µM | > 100 µM | > 100 µM | – | – | – | – | – | – |
